Results on 5 compounds are retold here after patent US20230248835A1, “COMPOUNDS, COMPOSITIONS, AND METHODS FOR THE TREATMENT OF FIBROTIC DISEASES AND CANCER” (Purdue Research Foundation, priority 2020, published 2023).

Experiment [1] concerns human PBMC-derived M2 macrophages. In words: Surface markers during macrophage polarization (flow cytometry). It counts as cell-based. To be noted: 48 hours. The method, then: Human PMBC-derived M2 macrophages were treated with different concentrations of folate-TLR7 agonists (e.g., Compound 4) for 48 hours, and macrophage cells were detached using Accutase cell detachment Solution (Biolegend, San Diego, Calif.; #423201) and gently lifted with a cell scraper. Cells were washed with PBS and nonspecific binding was blocked by incubation with Fc receptor blocking solution (Biolegend, San Diego, Calif.) at room temperature for 10 minutes. The resulting single cell suspensions were stained for M2 macrophage marker CD206, and M1 macrophage markers CD80 and CD40. All the samples were then analyzed by flow cytometry.
On the technique in general: Flow cytometry measures light scatter and fluorescence of single cells or particles in a stream.

The subject of experiment [2] is 4T1 solid tumor. In words: 4T1 solid tumor model in mice. In kind it is in vivo. To be noted: BalB/c mice; for polarization of the macrophages from M2 to M1 phenotype in tumor: 4T1 solid tumors, flow cytometry; for tumor size: subcutaneous 4T1, intravenous, Compound 5 10 nmol/mouse, Compound 4 different concentrations. The protocol: In additional in vivo studies, 6-8 week old female BalB/c mice (Charles River Laboratories International, Inc., Wilmington, Mass.) were transferred upon arrival to a folic acid-deficient diet (TD.95247, Envigo Corporation, Indianapolis, Ind.). On day 14, mice were implanted subcutaneously with 5.0×10^4 of 4T1 cells and tumors were allowed to grow until they reach ˜50 mm^3. Mice were then injected intravenously with different concentrations of 100 μl of Folate-TLR7 conjugate Compounds 4 or 10 nmol/mouse of Compound 5). Control groups received 100 μl of 3% DMSO in PBS on the same schedule.
Tumor volume was concurrently measured with calipers using the formula (a×b^2)/2 (a being the largest and b being the smallest diameter of the tumor) (see FIGS. 10A, 10B, and 14). When desired, mice were sacrificed, and derived tumor fragments were dissociated using a human tumor dissociation kit. The resulting single cell suspensions were stained for antibodies and the samples were then analyzed by flow cytometry. Percentage of CD4 and CD8 T cell populations were tested in live cells isolated from 4T1 solid tumors in groups of untreated control and Folate-TLR7 conjugate treatment groups.

In experiment [3] the test system is 4T1 metastatic tumor. In words: 4T1 metastatic tumor model, lung metastatic colony formation (6-thioguanine assay). In kind it is in vivo. To be noted: Balb/c mice, 50 nmole/kg intravenously once/week. The protocol: Additional 4T1 solid tumor metastatic studies were also performed. There, lung metastatic colony formation assay was carried out following the reported procedure (Cresswell et al., Folate receptor beta designates immunosuppressive tumor-associated myeloid cells that can be reprogrammed with folate-targeted drugs, Cancer Research 2021, 81(3), 671-684). 6-8 weeks old Balb/c mice were implanted with 50,000 4T1 cells in the mammary fat pad and tumors were allowed to grow until they reached ˜50 mm^3. Mice were then injected intravenously with 100 μl of Folate-TLR7 conjugate (Compound 4) (50 nmole/kg) once/week. The control group received an equal volume of PBS on the same schedule. At the end of the treatment, metastasis in lung was evaluated in disease control and treatment group by co-culturing lung-digested cells with 6-thioguanine ([…]) in complete RPMI-1640 media for 10 days in petri plates. Metastatic colonies were visualized by fixing the plates with 5 mL of methanol followed by 5 mL deionized water wash and then stained with 0.03% methylene blue (see FIG. 15C). Total blue colonies from each plate were then counted.

For experiment [4], the system named is human PBMC-derived M2 macrophages. Briefly: Reprogramming of human PBMC-derived M2 macrophages by folate-TLR7 conjugates (qPCR, ELISA). In kind it is cell-based. To be noted: increased M1 markers. The method, then: To evaluate the efficacy of the releasable and non-releasable conjugates, freshly isolated PBMCs were plated with monocyte attachment medium at a seeding density of 1 million cells/cm^2. This was incubated for about 2 hours at 5% CO2 and 37° C. in the incubator. Non-adherent cells were removed, and the monocytes were washed three times with warm monocyte attachment medium. The monocytes were cultured in folate deficient RPMI 1640 medium. This was differentiated into unpolarized macrophages by incubating with fresh RPMI medium containing 20 ng/mL of M-CSF supplemented with 1% penicillin streptomycin (Invitrogen, Carlsbad, Calif.) and 10% FBS.
After 3 days, the medium was replaced with fresh RPMI medium containing 20 ng/mL of M-CSF. […]
qPCR analyses were performed using the iTaq™ Universal SYBR Green SuperMix (Bio-Rad Laboratories, Inc., Hercules, Calif.; #1725121), iCycler thermocycler, and iCycler iQ 3.0 software (Bio-Rad Laboratories Inc., Hercules, Calif.) to track the expression of markers characteristic of macrophage polarization states. […] Each sample was analyzed independently in triplicate for each marker. IL-6, CXCL-10 and TNF-α protein expression in the cell culture supernatants were calculated using the commercially available ELISA kits (Biolegend, San Diego, Calif.).
A general note: Quantitative PCR measures a nucleic acid by following its amplification.

For experiment [5], the system named is human primary monocyte derived M2-macrophages. Briefly: Cytokine induction in human primary monocyte derived M2-macrophages. It counts as cell-based. To be noted: 48 hours; for induction of interleukin-6 (IL-6): compared to parent compound TLR7-1, FIG. 3A; for induction of C-X-C motif chemokine ligand 10 (CXCL-10): compared to parent compound TLR7-1, FIG. 3B; for polarization of M2 macrophages to M1 macrophages: shown by increased M1 markers IL-6 and CXCL10.

Experiment [6] deals with human peripheral blood mononuclear cells (PBMCs). In words: IL-6 production in human PBMCs treated with TLR7 agonists (ELISA). It counts as cell-based. To be noted: 24 hours, compared to control Compound A (TLR7-1), FIG. 2. The protocol: To evaluate the efficacy of TLR-7 agonists, Compounds 1 (TLR7-1A), 2 (TLR7-1B) and 3 (TLR7-1C) were treated with human peripheral blood mononuclear cells (PBMCs) for 24 hours and cytokine production was thereafter assessed. Human PBMCs were isolated from healthy donors by density gradient centrifugation following standard procedure. 18 mL of blood were diluted with 2% fetal bovine serum (FBS) in phosphate-buffered saline (PBS) (1:1 dilution) and transferred slowly into a 50 mL SepMate™ PBMC isolation tube containing 12 mL of Ficoll-Paque®. The tube was centrifuged at 1200 g for 10 minutes and PBMCs were transferred into a fresh 50 mL tube.
PBMCs were washed with 2×50 mL of 2% FBS in PBS and plated in 96 well plate at a density of 2×10^5 cells/200 μL RPMI medium. This was treated with different concentrations of TLR7 agonist for 24 hours.
Compound A (TLR7-1) was used as control. Cell culture supernatants were isolated and cytokine levels were calculated using an enzyme-linked immunosorbent assay (ELISA) kit (FIG. 2).

Experiment [7] in a line: Systemic cytokine release in healthy mice after tail vein injection. To be noted: healthy Balb/c mice, 10 nmol tail vein, 1 hour or 1.5 hours after treatment. In kind it is in vivo. The text has this:
Female Balb/c mice were purchased from Charles Rivers, housed in a sterile environment on a standard 12-hour light-dark cycle, and maintained on a folate-deficient diet. All animal procedures were approved by the Purdue Animal Care and Use Committee in accordance with National Institutes of Health guidelines.
Healthy mice were tail vein injected with 10 nmol Compound A (TLR7-1) or Compound 1 (TLR7-1A), and peripheral blood was collected at indicated time points after drug injection. (FIGS. 3C and 3D). The effect of drug on plasma levels of IL-6 (FIG. 3C), and tumor necrosis factor alpha (TNF-α) (FIG. 3D) was determined at 1 hour or 1.5 hours after treatment. Both Compounds A and 1 stimulated systemic cytokine release in healthy mice.

Experiment [8] deals with mouse bone marrow-derived M2-macrophages. Briefly: Macrophage polarization in mouse bone marrow-derived M2 macrophages (ELISA). It counts as cell-based. To be noted: 48 hours. The method, then:
Bone marrow cells were isolated from tibias and femurs of male C57BL/6 mice and were differentiated to macrophages with mouse M-CSF (20 ng/mL). The macrophages were then polarized to M2 phenotype with 20 ng/mL of […] for 48 hours. Interferon-γ (IFN-γ), interleukin-4 (IL-4), and interleukin-13 (IL-13) were obtained from Biolgend (San Diego, Calif.). Lipopolysaccharide (LPS) was purchased from Sigma-Aldrich (St. Louis, Mo.).
The resulting M2 macrophages were then incubated with varying concentrations of Resiquimod, GSK2245035, Compound 1, Compound 2, and Compound 3 for 48 hours. Supernatant was harvested and cytokines were analyzed using ELISA. (Resiquimod and GSK2245035 are known TLR7 agonists.)
(In general: In an ELISA, binding on a coated surface is turned into a signal by an enzyme label.)

`CCCCc1nc2c(N)nc3ccccc3c2n1CC(C)(C)COCCOCCOCCOCCNC(=O)CC[C@H](NC(=O)c1ccc(NCc2cnc3nc(N)[nH]c(=O)c3n2)cc1)C(=O)O` [Compound 4, (S)-1-(4-amino-2-butyl-1H-imidazo[4,5-c]quinolin-1-yl)-20-(4-(((2-amino-4-oxo-3,4-dihydropteridin-6-yl)methyl)amino)benzamido)-2,2-dimethyl-17-oxo-4,7,10,13-tetraoxa-16-azahenicosan-21-oic acid]: the “M1 surface marker CD40” value in experiment [1] (FIG. 12A) was “increased”. Besides, in experiment [1] (FIG. 12B), the “M1 surface marker CD80” value is on record as “increased”. For the same compound, the “polarization of M2 macrophages to M1 macrophages” value (“polarization of M2 macrophages” below) in experiment [1] (FIGS. 12A and 12B) is on record as “polarized the M2 macrophages to M1 macrophages”; in experiment [4] (3 hours or 3+45 hours, FIGS. 11A-11D), “polarized the M2 macrophages to M1 macrophages”. In addition, in experiment [2], the “polarization of the macrophages from M2 to M1 phenotype in tumor” value is on record as “shifted polarization of the macrophages from M2 to M1 phenotype”. Further, in experiment [2], the tumor size entry was “reduction”. In addition, in experiment [3] (6-thioguanine assay, FIG. 15B-C), the “number of metastatic colonies (lung)” value was “significantly decreased”. Also, the “volume of the tumor” value in experiment [3] (4T1 in mammary fat pad, FIG. 15A) is listed as “significantly decreased”.
Turning to `CCCCc1nc2c(N)nc3ccccc3c2n1CC(C)(C)CN` [Compound 2, 1-(3-amino-2,2-dimethylpropyl)-2-butyl-1H-imidazo[4,5-c]quinolin-4-amine], in experiment [5], the “induction of interleukin-6 (IL-6)” value was “more efficiently”, the “induction of C-X-C motif chemokine ligand 10 (CXCL-10)” value (“induction … (CXCL-10)” below) was “more efficiently” and the “polarization of M2 macrophages” value was “polarize the M2 macrophages to M1 macrophages”. Further, in experiment [6], the “expression of IL-6 in PBMCs” value is given as “increased”.
For the compound `CCCCc1nc2c(N)nc3ccccc3c2n1CC(C)(C)CO` [Compound 1, 3-(4-amino-2-butyl-1H-imidazo[4,5-c]quinolin-1-yl)-2,2-dimethylpropan-1-ol], in experiment [5], the “induction of interleukin-6 (IL-6)” value is given as “more efficiently”, the “induction … (CXCL-10)” value is “more efficiently” and the “polarization of M2 macrophages” value is reported as “polarize the M2 macrophages to M1 macrophages”. Besides, the “expression of IL-6 in PBMCs” value in experiment [6] is “increased”. Further, in experiment [7], the “systemic cytokine release (plasma IL-6, TNF-α)” value was “stimulated”. Also, the “M1 marker IL-6” value in experiment [8] (supernatant ELISA, FIG. 4A) is on record as “increase”. For the same compound, the “M1 marker TNF-α” value in experiment [8] (supernatant ELISA, FIG. 4B) is given as “increase”. Further, the “polarization of macrophages from M2 to M1 phenotype” value in experiment [8] (varying concentrations, FIGS. 4A and 4B) is “efficiently polarized”.
For the compound `CCCCc1nc2c(N)nc3ccccc3c2n1CC(C)(C)COC(=O)OCCSSC[C@H](NC(=O)CCOCCOCCOCCNC(=O)CC[C@H](NC(=O)c1ccc(NCc2cnc3nc(N)[nH]c(=O)c3n2)cc1)C(=O)O)C(=O)O` [Compound 5], in experiment [2], the “polarization of the macrophages from M2 to M1 phenotype in tumor” value is “shifted polarization of the macrophages from M2 to M1 phenotype” and the tumor size entry is listed as “reduction”. In addition, in experiment [4] (3+45 hours, FIG. 9), the “polarization of M2 macrophages” value is recorded as “polarized the M2 macrophages to M1 macrophages”.
Turning to `CCCCc1nc2c(N)nc3ccccc3c2n1CC(C)(C)N` [Compound 3, 1-(2-amino-2-methylpropyl)-2-butyl-1H-imidazo[4,5-c]quinolin-4-amine], in experiment [5], the “induction of interleukin-6 (IL-6)” value is on record as “more efficiently”, the “induction … (CXCL-10)” value is reported as “more efficiently” and the “polarization of M2 macrophages” value is listed as “polarize the M2 macrophages to M1 macrophages”. Moreover, the “expression of IL-6 in PBMCs” value in experiment [6] was “increased”.
